# Tested on: inclusion of exon 7 of SMN2 into mRNA transcribed from the SMN2-A minigene
# Experiment: Fold Activation: luciferase reporter, SMN2-A minigene construct versus SMN2-G minigene construct, in stably transfected HEK293H cells
# Type: cell-based, human
# Conditions: ratio of First Activation using the SMN2-A construct divided by Second Activation using the SMN2-G construct
# Excerpt: In a specific embodiment, the first cell and the second cell are the same cell type. In some embodiments, the first cell and the second cell are the same cell type and are obtained from the same source or clone. In some embodiments, the first reporter gene and the second reporter gene are the same reporter gene. In other embodiments, the first reporter gene and second reporter gene are different reporter genes. A compound that increases the inclusion of exon 7 of SMN2 into mRNA transcribed from the SMN2 gene will result in a Fold Activation derived from a higher ratio of the First Activation:
# [formula] [formula] [formula] In some embodiments, both the amount and activity of the first and second fusion proteins are detected. Accordingly, as used herein, the Fold Activation for a compound that modulates the inclusion of exon 7 of SMN2 into mRNA transcribed from the SMN2 gene is a ratio of the First Activation divided by the Second Activation.
# The HEK293H cell line stably transfected with the SMN2-A minigene construct was utilized in the HTS. HTS was performed by plating 10,000 cells in each well of a 384-well plate. Each 384-well plate contained 64 control wells used as an internal standard: 16 wells were used as a total control (no test compound, only compound solvent), 16 wells were used as reference standards representing background readings (high inhibitor concentration) and 32 wells were prepared to provide an 8-point dose response curve of puromycin as a non-specific standard control inhibitor. The remaining 320 wells contained individual test compounds. The cells were grown overnight in the presence of test compounds or controls at 37° C. in 5% CO2. After 24 hours, the amount of luminescence was determined using a ViewLux Imaging system (Perkin Elmer).
# Using the SMN2-A minigene construct, a HTS was performed testing a compound library. The amount of the fusion protein expressed from the minigene construct was determined by measuring luciferase activity as described herein. […] Enhancers of fusion protein expression were defined as those compounds that increased luciferase activity by at least three standard deviations above the mean. Based on this analysis, test compounds of Formula (I) were identified as hits and were subsequently confirmed by testing the compounds under the same conditions as in the original HTS. To ensure that the increase in luciferase activity detected in the HTS was due to increased inclusion of exon 7 of SMN2 into mRNA transcripts from the SMN2-A minigene construct, each compound was tested in two different cell lines: the cell line, which was used in the original HTS (HEK293H containing the SMN2-A minigene construct), and a HEK293H cell line that contained the SMN2-G minigene construct.
# Each compound was tested at four concentrations: 15 μM, 3 μM, 0.6 μM, 0.12 μM.
# The Fold Activation results are provided as a ratio of a First Activation using the SMN-2A construct divided by a Second Activation using the SMN-2G construct, wherein 1 star (*) represents active compounds with a fold increase ratio between 1.1-1.3; 2 stars (**) represent active compounds with a fold increase ratio between 1.3-2.0; 3 stars (***) represent active compounds with a fold increase ratio greater than 2.0.
row,Compound,Activity (Fold Activation)
1,"Cc1ccc2nc(-c3cccc(C(N)=O)c3)oc2c1 [Cpd 112, 3-(6-methyl-benzooxazol-2-yl)-benzamide]",** (2 stars (**) represent active compounds with a fold increase ratio between 1.3-2.0)
2,"O=C(O)c1ccc2oc(-c3ccc4c(c3)OCO4)nc2c1 [Cpd 26, 2-benzo[1,3]dioxol-5-yl-benzooxazole-5-carboxylic acid]",** (2 stars (**) represent active compounds with a fold increase ratio between 1.3-2.0)
3,"O=C(O)c1ccc2oc(-c3ccc(N4CCC4)cc3)nc2c1 [Cpd 57, 2-(4-azetidin-1-yl-phenyl)-benzooxazole-5-carboxylic acid]",** (2 stars (**) represent active compounds with a fold increase ratio between 1.3-2.0)
4,"O=C(O)c1cccc(-c2nc3cc(-c4ccc(OC(F)(F)F)cc4)ccc3o2)c1 [Cpd 29, 3-[5-(4-trifluoromethoxy-phenyl)-benzooxazol-2-yl]-benzoic acid]",** (2 stars (**) represent active compounds with a fold increase ratio between 1.3-2.0)
5,"O=C(O)c1ccc2oc(-c3ccc(N4CCCC4)nc3)nc2c1 [Cpd 89, 2-(6-pyrrolidin-1-yl-pyridin-3-yl)-benzooxazole-5-carboxylic acid]",*** (3 stars (***) represent active compounds with a fold increase ratio greater than 2.0)
6,"Cc1cc(-c2nc3ccc(C(=O)O)cc3o2)c(C)o1 [Cpd 67, 2-(2,5-dimethyl-furan-3-yl)-benzooxazole-6-carboxylic acid]",** (2 stars (**) represent active compounds with a fold increase ratio between 1.3-2.0)
7,"CN1CCCN(c2ccc3nc(-c4cccc(C(=O)O)c4)oc3c2)CC1 [Cpd 81, 3-[6-(4-methyl-[1,4]diazepan-1-yl)-benzooxazol-2-yl]-benzoic acid]",* (1 star (*) represents active compounds with a fold increase ratio between 1.1-1.3)
8,"O=C(O)c1cccc(-c2nc3cc(-c4ccc(F)c(F)c4)ccc3o2)c1 [Cpd 30, 3-[5-(3,4-difluoro-phenyl)-benzooxazol-2-yl]-benzoic acid]",** (2 stars (**) represent active compounds with a fold increase ratio between 1.3-2.0)
9,"O=C(O)c1cccc(-c2nc3ccc(-c4ccccc4)cc3o2)c1 [Cpd 23, 3-(6-Phenyl-benzooxazol-2-yl)-benzoic acid]",* (1 star (*) represents active compounds with a fold increase ratio between 1.1-1.3)
10,"O=C(O)c1ccc2oc(-c3ccc(OC(F)(F)F)cc3)nc2c1 [Cpd 100, 2-(4-trifluoromethoxy-phenyl)-benzooxazole-5-carboxylic acid]",** (2 stars (**) represent active compounds with a fold increase ratio between 1.3-2.0)
11,"NC(=O)c1cccc(-c2nc3ccc(N4CCCCC4)cc3o2)c1 [Cpd 110, 3-(6-piperidin-1-yl-benzooxazol-2-yl)-benzamide]",* (1 star (*) represents active compounds with a fold increase ratio between 1.1-1.3)
12,"O=C(O)c1ccc2nc(-c3ccc(-c4ccccc4)cc3)oc2c1 [Cpd 18, 2-biphenyl-4-yl-benzooxazole-6-carboxylic acid]",* (1 star (*) represents active compounds with a fold increase ratio between 1.1-1.3)
13,"O=C(O)c1cccc(-c2nc3ccc(-n4cccn4)cc3o2)c1 [Cpd 44, 3-(6-pyrazol-1-yl-benzooxazol-2-yl)-benzoic acid]",** (2 stars (**) represent active compounds with a fold increase ratio between 1.3-2.0)
14,"O=C(O)c1ccc2nc(-c3ccc(N4CCC4)nc3)oc2c1 [Cpd 93, 2-(6-azetidin-1-yl-pyridin-3-yl)-benzooxazole-6-carboxylic acid]",** (2 stars (**) represent active compounds with a fold increase ratio between 1.3-2.0)
15,"Cc1ccc2oc(-c3cccc(C(=O)O)c3)nc2c1 [Cpd 21, 3-(5-methyl-benzooxazol-2-yl)-benzoic acid]",*** (3 stars (***) represent active compounds with a fold increase ratio greater than 2.0)
16,"O=C(O)c1ccc2oc(-c3ccc(Br)cc3)nc2c1 [Cpd 35, 2-(4-bromo-phenyl)-benzooxazole-5-carboxylic acid]",** (2 stars (**) represent active compounds with a fold increase ratio between 1.3-2.0)
17,"O=C(O)c1ccc2nc(-c3ccccc3F)oc2c1 [Cpd 66, 2-(2-fluoro-phenyl)-benzooxazole-6-carboxylic acid]",*** (3 stars (***) represent active compounds with a fold increase ratio greater than 2.0)
18,"O=C(O)c1cccc(-c2nc3ccc(N4CCC4)cc3o2)c1 [Cpd 52, 3-(6-azetidin-1-yl-benzooxazol-2-yl)-benzoic acid]",** (2 stars (**) represent active compounds with a fold increase ratio between 1.3-2.0)
19,"O=C(O)c1cccc(-c2nc3ccc(Oc4ccccc4)cc3o2)c1 [Cpd 82, 3-(6-phenoxy-benzooxazol-2-yl)-benzoic acid]",** (2 stars (**) represent active compounds with a fold increase ratio between 1.3-2.0)
20,"Cc1cc(C)cc(-c2ccc3oc(-c4cccc(C(=O)O)c4)nc3c2)c1 [Cpd 37, 3-[5-(3,5-dimethyl-phenyl)-benzooxazol-2-yl]-benzoic acid]",* (1 star (*) represents active compounds with a fold increase ratio between 1.1-1.3)
21,"Cc1cc(-c2nc3cc(C(=O)O)ccc3o2)c(C)o1 [Cpd 77, 2-(2,5-dimethyl-furan-3-yl)-benzooxazole-5-carboxylic acid]",* (1 star (*) represents active compounds with a fold increase ratio between 1.1-1.3)
22,"CC(C)c1ccc(-c2nc3cc(C(=O)O)ccc3o2)cc1 [Cpd 24, 2-(4-isopropyl-phenyl)-benzooxazole-5-carboxylic acid]",*** (3 stars (***) represent active compounds with a fold increase ratio greater than 2.0)
23,"CN(Cc1ccccc1)c1ccc2nc(-c3cccc(C(=O)O)c3)oc2c1 [Cpd 102, 3-[6-(benzyl-methyl-amino)-benzooxazol-2-yl]-benzoic acid]",** (2 stars (**) represent active compounds with a fold increase ratio between 1.3-2.0)
24,"COc1ccc2nc(-c3cccc(C(N)=O)c3)oc2c1 [Cpd 111, 3-(6-methoxy-benzooxazol-2-yl)-benzamide]",** (2 stars (**) represent active compounds with a fold increase ratio between 1.3-2.0)
25,"CC(=O)Nc1ccc2oc(-c3ccc(Br)c(C)c3)nc2c1 [Cpd 128, N-[2-(4-bromo-3-methyl-phenyl)-benzooxazol-5-yl]-acetamide]",*** (3 stars (***) represent active compounds with a fold increase ratio greater than 2.0)

# Reference: patent publication US8633019B2, “Methods for treating spinal muscular atrophy” (PTC Therapeutics, Inc., priority 2008, dated 2014)
